From the supplement of paper PMC10307832

Legend:
Test in all cases: relative viability (nuclei count vs DMSO), 5 days (fraction); higher = more cells survive
[1] = compound: COc1cc2/c(=N/c3ccc(Br)cc3F)nc[nH]c2cc1OCC1CCN(C)CC1 [Vandetanib]
Outline: (§1)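 Five library-drug doses, separated by factors of √10, were pinned into 1536-well plates holding lung cancer cell lines after an overnight stay at 37 °C. Cells were fixed, permeabilised and Hoechst-stained in one step after 5 days without medium change, then imaged at 4×. Viability compares treated-well with vehicle-well nuclei, counted in MetaXpress, as a median across plates. Passing plates had control CV below 25% and at least one doubling.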

[2] = compound: COc1cc(N2CCC(N3CCN(C)CC3)CC2)ccc1Nc1ncc(Cl)c(Nc2ccccc2S(=O)(=O)C(C)C)n1 [NVP-TAE684]
Outline: as §1

[3] = compound: C1=CC=C2C(=C1)N=C(S2)C(C#N)C3=NC(=NC=C3)NCCC4=CN=CC=C4
Outline: as §1

[4] = compound: C#Cc1cccc(Nc2ncnc3cc(OC)c(OCCCCCCC(=O)NO)cc23)c1 [CUDC-101]
Outline: as §1

EMC-BAC-2
relative viability ([1]; 0.02 µM): 1.03
relative viability ([1]; 0.06325 µM): 0.981
relative viability ([1]; 0.2 µM): 0.929
relative viability ([1]; 0.6325 µM): 1.02
relative viability ([1]; 2 µM): 0.918
relative viability ([2]; 0.2 µM): 0.966
relative viability ([2]; 0.6325 µM): 0.894
relative viability ([2]; 2 µM): 0.679
relative viability ([3]; 0.005 µM): 1.09
relative viability ([3]; 0.01581 µM): 0.976
relative viability ([3]; 0.05 µM): 0.952
relative viability ([3]; 0.1581 µM): 1.04
relative viability ([3]; 0.5 µM): 0.97
relative viability ([4]; 0.01 µM): 1.05
relative viability ([4]; 0.03162 µM): 0.966
relative viability ([4]; 0.1 µM): 1.13
relative viability ([4]; 0.3162 µM): 0.9
relative viability ([4]; 1 µM): 0.616

EBC-1
relative viability ([1]; 0.02 µM): 0.93
relative viability ([1]; 0.06325 µM): 0.959
relative viability ([1]; 0.2 µM): 1.07
relative viability ([1]; 0.6325 µM): 1.09
relative viability ([1]; 2 µM): 1.03
relative viability ([2]; 0.2 µM): 0.836
relative viability ([2]; 0.6325 µM): 1.03
relative viability ([2]; 2 µM): 0.744
relative viability ([3]; 0.005 µM): 1.02
relative viability ([3]; 0.01581 µM): 1.15
relative viability ([3]; 0.05 µM): 0.803
relative viability ([3]; 0.1581 µM): 1.06
relative viability ([3]; 0.5 µM): 0.858
relative viability ([4]; 0.01 µM): 1
relative viability ([4]; 0.03162 µM): 0.89
relative viability ([4]; 0.1 µM): 0.975
relative viability ([4]; 0.3162 µM): 0.785
relative viability ([4]; 1 µM): 0.582

PC-14
relative viability ([1]; 0.02 µM): 0.987
relative viability ([1]; 0.06325 µM): 0.833
relative viability ([1]; 0.2 µM): 0.574
relative viability ([1]; 0.6325 µM): 0.369
relative viability ([1]; 2 µM): 0.223
relative viability ([2]; 0.2 µM): 0.998
relative viability ([2]; 0.6325 µM): 1.01
relative viability ([2]; 2 µM): 0.921
relative viability ([3]; 0.005 µM): 0.919
relative viability ([3]; 0.01581 µM): 1.07
relative viability ([3]; 0.05 µM): 0.95
relative viability ([3]; 0.1581 µM): 1.15
relative viability ([3]; 0.5 µM): 0.902
relative viability ([4]; 0.01 µM): 1.12
relative viability ([4]; 0.03162 µM): 0.837
relative viability ([4]; 0.1 µM): 0.602
relative viability ([4]; 0.3162 µM): 0.537
relative viability ([4]; 1 µM): 0.273

201T
relative viability ([1]; 0.02 µM): 0.951
relative viability ([1]; 0.06325 µM): 0.951
relative viability ([1]; 0.2 µM): 1.01
relative viability ([1]; 0.6325 µM): 0.934
relative viability ([1]; 2 µM): 0.941
relative viability ([2]; 0.2 µM): 1.05
relative viability ([2]; 0.6325 µM): 0.958
relative viability ([2]; 2 µM): 0.875
relative viability ([3]; 0.005 µM): 0.963
relative viability ([3]; 0.01581 µM): 0.876
relative viability ([3]; 0.05 µM): 1.01
relative viability ([3]; 0.1581 µM): 1.03
relative viability ([3]; 0.5 µM): 0.89
relative viability ([4]; 0.01 µM): 0.984
relative viability ([4]; 0.03162 µM): 0.97
relative viability ([4]; 0.1 µM): 0.964
relative viability ([4]; 0.3162 µM): 1.03
relative viability ([4]; 1 µM): 0.829

NCI-H1648
relative viability ([1]; 0.02 µM): 0.862
relative viability ([1]; 0.06325 µM): 0.824
relative viability ([1]; 0.2 µM): 0.745
relative viability ([1]; 0.6325 µM): 0.915
relative viability ([1]; 2 µM): 0.561
relative viability ([2]; 0.2 µM): 0.715
relative viability ([2]; 0.6325 µM): 0.713
relative viability ([2]; 2 µM): 0.363
relative viability ([3]; 0.005 µM): 0.704
relative viability ([3]; 0.01581 µM): 0.812
relative viability ([3]; 0.05 µM): 0.764
relative viability ([3]; 0.1581 µM): 1.19
relative viability ([3]; 0.5 µM): 0.75
relative viability ([4]; 0.01 µM): 1.15
relative viability ([4]; 0.03162 µM): 0.59
relative viability ([4]; 0.1 µM): 0.758
relative viability ([4]; 0.3162 µM): 0.741
relative viability ([4]; 1 µM): 0.376

LXF-289
relative viability ([1]; 0.02 µM): 1.01
relative viability ([1]; 0.06325 µM): 1.02
relative viability ([1]; 0.2 µM): 1.03
relative viability ([1]; 0.6325 µM): 0.985
relative viability ([1]; 2 µM): 0.968
relative viability ([2]; 0.2 µM): 1.02
relative viability ([2]; 0.6325 µM): 1.01
relative viability ([2]; 2 µM): 0.907
relative viability ([3]; 0.005 µM): 0.925
relative viability ([3]; 0.01581 µM): 1.09
relative viability ([3]; 0.05 µM): 0.968
relative viability ([3]; 0.1581 µM): 1.06
relative viability ([3]; 0.5 µM): 0.948
relative viability ([4]; 0.01 µM): 1.01
relative viability ([4]; 0.03162 µM): 1.03
relative viability ([4]; 0.1 µM): 0.997
relative viability ([4]; 0.3162 µM): 0.971
relative viability ([4]; 1 µM): 0.908
